Test results published in patent US20210244712A1, “METHODS FOR TREATING PATIENTS WITH CANCER HAVING DEFECTS IN CYCLIN D REGULATION” (NysnoBio Ireland DAC, priority 2018, published 2021).
Like-named read-outs stand apart in the source and are kept apart here.

Assays:
Type in all cases: cell-based
TOV-112D = experiment: Cell proliferation assay; details: Homo sapiens, TOV112D, Table 7b, TOV-112D, read-out: Cell Proliferation Assay (EC50)
Description: (§1) Measurement of the inhibitive effect of compounds on cancer cell proliferation was performed. The assays were performed under the following conditions: Cells are harvested at a concentration of 4×10^4 cells/ml in media. Volumes of 100 μL/well of these cell suspensions were added to a 96 well plate using a multichannel pipette. Plates were gently agitated to ensure an even dispersion of cells over a given plate. Cells were then incubated at 37° C., 5% CO2 overnight. Following this, 100 μL of compound at varying concentrations was added to wells in triplicate. Control wells are those with 100 μL media containing 0.33% DMSO added to cell suspension (this is the equivalent volume of DMSO found in the highest concentration of drug). Plates were then gently agitated, as above, and incubated at 37° C., 5% CO2 for 72 hrs (control wells have reached 80-90% confluency). Assessment of cell proliferation in the presence of Compounds C and F was determined by the acid phosphatase assay.
(§2) Following the incubation period of 72 hrs, media was removed from the plates. Each well on the plate was washed twice with 100 μL PBS. This was then removed and 100 μL of freshly prepared phosphatase substrate (10 mM p-nitrophenol phosphate in 0.1M sodium acetate, 0.1% triton X-100, pH 5.5) was added to each well. The plates were then incubated in the dark at 37° C. for 2 hours. Color development was monitored during this time. The enzymatic reaction was stopped by the addition of 50 μL of 1N NaOH. The plate was read in a dual beam plate reader at 405 nm with a reference wavelength of 620 nm. The absorbance reading of the latter is subtracted from the former, and the effect of the drug on cell proliferation was then measured as a percentage against the control cells (DMSO), which is taken as 0% inhibition.

HCT 116 = experiment: Cell proliferation assay; details: Homo sapiens, Table 7b, HCT-116, read-out: Cell Proliferation Assay (EC50)
Description: as §1, §2

cyclin D1 = experiment: Western blot of Cyclin D1, Example 6B; details: 250 nM, 24 h, compared to control (DMSO)
Description: Cells were plated at a density of 3×10^5 cells/well for 24 hrs. Representative compounds or DMSO alone was then added to the wells for 24 h at 250 nM (note: Compound F was administered at a concentration of 2 μM). Cells were trypsinised, pelleted, washed ×3 in PBS, and lysed using a 2% SDS lysis solution (Sigma—05030).
Western blot analysis was then carried out to look at Cyclin D1 (Abeam—ab134175), PRK8 (Sigma—P6248), Rb (Abeam—[…]) and GAPDH (Sigma—G9545) levels.

Compound | EC50 (HCT 116; cells printed in nM) [nM] | EC50 (HCT 116; cells printed in μM) [nM] | EC50 (TOV-112D; cells printed in nM) [nM] | EC50 (TOV-112D; cells printed in μM) [nM] | Cyclin D1 expression (cyclin D1; HCT-116) | Cyclin D1 expression (cyclin D1; TOV-112)
Cc1ccccc1C(=O)Nc1nc(NC(=O)c2ccc(CN)cc2)n(-c2ccc(OC(F)(F)F)cc2)n1 [Compound 2x] |  | 3000 |  | 4000 |  | 
CCCCCCC(=O)NCc1ccc(C(=O)Nc2nc(-c3ncccc3C)nn2-c2ccc(OC(F)(F)F)cc2)cc1 [Compound 3x, 4-(heptanamidomethyl)-N-(3-(3-methylpyridin-2-yl)-1-(4-(trifluoromethoxy)phenyl)-1H-1,2,4-triazol-5-yl)benzamide] | 484 |  | 349 |  |  | 
CCCCCCC(=O)NCc1ccc(C(=O)Nc2nc(-c3ncccc3C)nn2-c2cccc(F)c2)cc1 [Compound 4x, N-(1-(3-fluorophenyl)-3-(3-methylpyridin-2-yl)-1H-1,2,4-triazol-5-yl)-4-(heptanamidomethyl)benzamide] | 295 |  | 227 |  |  | 
Cc1cccnc1-c1nc(NC(=O)c2ccc(CN)cc2)n(-c2ccc(OC(F)(F)F)cc2)n1 [Compound 5x, 4-(aminomethyl)-N-(3-(3-methylpyridin-2-yl)-1-(4-(trifluoromethoxy)phenyl)-1H-1,2,4-triazol-5-yl)benzamide] | 133 |  | 114 |  | reduction of Cyclin D1 expression | reduction of Cyclin D1 expression
Cc1ccccc1C(=O)Nc1nc(NC(=O)c2cccc(CN3CCOCC3)c2)nn1-c1ccc(OC(F)(F)F)cc1 [Compound 11x, 2-methyl-N-(3-(3-(morpholinomethyl)benzamido)-1-(4-(trifluoromethoxy)phenyl)-1H-1,2,4-triazol-5-yl)benzamide] | 929 |  | 774 |  | reduction of Cyclin D1 expression | reduction of Cyclin D1 expression
Cc1ccccc1C(=O)Nc1nc(NC(=O)c2ccc(CNC(C)C)cc2)nn1-c1ccc(OC(F)(F)F)cc1 [Compound 12x, N-(3-(4-((isopropylamino)methyl)benzamido)-1-(4-(trifluoromethoxy)phenyl)-1H-1,2,4-triazol-5-yl)-2-methylbenzamide] | 755 |  | 183 |  |  | 
Cc1ccccc1C(=O)Nc1nc(NC(=O)c2cccc(CNC(C)C)c2)nn1-c1ccc(OC(F)(F)F)cc1 [Compound 13x, N-(3-(3-((isopropylamino)methyl)benzamido)-1-(4-(trifluoromethoxy)phenyl)-1H-1,2,4-triazol-5-yl)-2-methylbenzamide] | 426 |  | 231 |  | reduction of Cyclin D1 expression | reduction of Cyclin D1 expression
Cc1ccccc1C(=O)Nc1nc(NC(=O)c2ccc(CN3CCN(C)CC3)cc2)nn1-c1ccc(OC(F)(F)F)cc1 [Compound 14x, 2-methyl-N-(3-(4-((4-methylpiperazin-1-yl)methyl)benzamido)-1-(4-(trifluoromethoxy)phenyl)-1H-1,2,4-triazol-5-yl)benzamide] | 412 |  | 655 |  | reduction of Cyclin D1 expression | reduction of Cyclin D1 expression
Cc1ccccc1C(=O)Nc1nc(NC(=O)c2cccc(CN3CCN(C)CC3)c2)nn1-c1ccc(OC(F)(F)F)cc1 [Compound 15x, 2-methyl-N-(3-(3-((4-methylpiperazin-1-yl)methyl)benzamido)-1-(4-(trifluoromethoxy)phenyl)-1H-1,2,4-triazol-5-yl)benzamide] |  | 1000 |  | 3000 |  | 
Cc1ccccc1C(=O)Nc1nc(NC(=O)c2ccc(CNC(=O)[C@@H]3CCCN3)cc2)nn1-c1ccc(OC(F)(F)F)cc1 [Compound 16x, (S)—N-(4-((5-(2-methylbenzamido)-1-(4-(trifluoromethoxy)phenyl)-1H-1,2,4-triazol-3-yl)carbamoyl)benzyl)pyrrolidine-2-carboxamide] | 412 |  | 659 |  |  | 

Second part, led by results:

EC50 (HCT 116; cells printed in nM) [nM] | EC50 (HCT 116; cells printed in μM) [nM] | Compound | EC50 (TOV-112D; cells printed in nM) [nM] | EC50 (TOV-112D; cells printed in μM) [nM] | Cyclin D1 expression (cyclin D1; HCT-116) | Cyclin D1 expression (cyclin D1; TOV-112)
972 |  | Cc1ccccc1C(=O)Nc1nc(NC(=O)c2ccc(CN)cc2)nn1-c1ccc(OC(F)(F)F)cc1 [Compound 1x, N-(3-(4-(aminomethyl)benzamido)-1-(4-(trifluoromethoxy)phenyl)-1H-1,2,4-triazol-5-yl)-2-methylbenzamide] | 350 |  |  | 
 | 2000 | Cc1cccnc1-c1nc(NC(=O)c2ccc(CN)cc2)n(-c2cccc(F)c2)n1 [Compound 6x, 4-(aminomethyl)-N-(1-(3-fluorophenyl)-3-(3-methylpyridin-2-yl)-1H-1,2,4-triazol-5-yl)benzamide] |  | 2000 | reduction of Cyclin D1 expression | reduction of Cyclin D1 expression
406 |  | Cc1ccccc1C(=O)Nc1nc(-c2ccccc2O)nn1-c1ccc(N2CCNCC2)cc1 [Compound 7x, N-(3-(2-hydroxyphenyl)-1-(4-(piperazin-1-yl)phenyl)-1H-1,2,4-triazol-5-yl)-2-methylbenzamide] | 285 |  | reduction of Cyclin D1 expression | reduction of Cyclin D1 expression
246 |  | CCCCCCC(=O)N1CCN(c2ccc(-n3nc(-c4ccccc4O)nc3NC(=O)c3ccccc3C)cc2)CC1 [Compound 8x, N-(1-(4-(4-heptanoylpiperazin-1-yl)phenyl)-3-(2-hydroxyphenyl)-1H-1,2,4-triazol-5-yl)-2-methylbenzamide] | 124 |  |  | 
121 |  | CCCCCCC(=O)NCc1ccc(C(=O)Nc2nc(-c3ccccc3O)nn2-c2ccc(OC(F)(F)F)cc2)cc1 [Compound 9x, 4-(heptanamidomethyl)-N-(3-(2-hydroxyphenyl)-1-(4-(trifluoromethoxy)phenyl)-1H-1,2,4-triazol-5-yl)benzamide] | 82 |  |  | 
108 |  | NCc1ccc(C(=O)Nc2nc(-c3ccccc3O)nn2-c2ccc(OC(F)(F)F)cc2)cc1 [Compound 10x, 4-(aminomethyl)-N-(3-(2-hydroxyphenyl)-1-(4-(trifluoromethoxy)phenyl)-1H-1,2,4-triazol-5-yl)benzamide] | 71 |  | reduction of Cyclin D1 expression | reduction of Cyclin D1 expression
